{"source": "patent US4211772A", "about": "“Benzopyran glycoside acetals and ketals” (Laboratoires Sarget, priority 1977, dated 1980)", "key": {"Solubilities in water": {"test": "Solubilities in water", "type": "physicochemical", "details": "water"}, "carragenin edema": {"tested_on": "carragenin edema", "test": "Anti-inflammatory activity: carragenin edema test", "type": "in vivo", "details": "Rattus norvegicus, ip, substantially alkaline pH solution, read-out: % inhibition of carragenin edema; for inhibition in vivo at 100 mg/kg: 100 mg/kg i.p.; for inhibition in vivo at 200 mg/kg: 200 mg/kg i.p.; for inhibition in vivo at 300 mg/kg: 300 mg/kg i.p.", "in_short": "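Male Wistar EOPS rats receive 0.1 ml of 5% carragenin suspension in physiological serum into the hind-paw metatarsal muscle, with test substance given i.p. in neutralized solution at the same time. Paw edema is measured by plethysmometry at several times after carragenin and reported as % inhibition against pH-matched physiological serum controls.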"}, "capillary permeability": {"tested_on": "capillary permeability", "test": "Capillaroprotecting effects: capillary permeability", "type": "in vivo, conventional male Wistar rats", "protocol": "Capillaroprotecting effects\nThe capillary permeability was determined by the method of Charlier et al, Arch. Inter. Physiol."}, "[1]": {"test": "i.p. toxicity in Swiss EOPS mice, mortality at 14 days", "details": "mouse, in vivo, ip, DMSO solution at 1/2, read-out: percentages of mortality at the end of 14 days", "protocol": "The i.p. toxicities of certain compounds of the present invention were determined using male and female Swiss EOPS mice for administrations in DMSO solution at 1/2 under a volume of P/100."}, "aldose reductase [2]": {"tested_on": "aldose reductase", "details": "prior art statement; cited from earlier work"}, "COMT": {"target": "T1, COMT (Rattus norvegicus, UniProt P22734)", "T1 construct": "The enzyme is extracted from rat liver; from tissue; host or cells: rat liver", "T1 sequence (P22734 1-221 isoform P22734-2)": "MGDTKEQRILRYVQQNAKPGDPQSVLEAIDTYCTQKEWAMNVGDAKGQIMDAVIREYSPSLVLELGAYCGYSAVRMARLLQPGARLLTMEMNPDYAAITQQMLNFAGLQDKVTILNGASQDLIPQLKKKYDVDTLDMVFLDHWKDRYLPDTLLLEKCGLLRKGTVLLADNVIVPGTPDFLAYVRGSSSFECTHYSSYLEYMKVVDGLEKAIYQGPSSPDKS", "test": "Inhibition of COMT in vitro (enzyme from rat liver, 4-nitrocatechol substrate)", "type": "biochemical", "details": "in dimethylsulfoxide solution, read-out: percentages of inhibition (COMT)", "protocol": "Inhibition of COMT in vitro The enzyme is extracted from rat liver by the method described by Axelrod et al, J. Biol. Chem., 233, 702(1958); its activity is measured in the presence of S-adenosyl methionine and using as substrate 4-nitrocatechol by the method described by Lee et al, J. Pharm. Sci., 66(7), 986(1977). The quantity of 4-nitrocatechol consumed was determined spectrophotometrically at 520 nm in alkaline medium."}, "Aldose Reductase [3]": {"target": "T2, Aldose Reductase (Bos taurus, UniProt P16116)", "T2 construct": "The enzyme is extracted from beef eye lenses; from tissue; host or cells: beef eye lenses", "test": "Inhibition of aldose reductase in vitro (enzyme from beef eye lenses, glyceraldehyde substrate)", "type": "biochemical", "details": "5.10^-6 mole/l, in DMF solution", "from_the_text": "Inhibition of Aldose Reductase In Vitro\nThe reoxidation of NADPH coupled to the enzymatic reaction was followed spectrophotometrically at 340 nm."}}, "note": "Like-named read-outs stand apart in the source and are kept apart here."}
{"smiles": "COc1ccc(C2CC(=O)c3c(O)cc(O[C@@H]4O[C@H](CO[C@@H]5O[C@@H](C)[C@H](O)[C@H]6OC(C)(C)O[C@@H]56)[C@@H](O)[C@H](O)[C@H]4O)cc3O2)cc1O", "note": "(stereo partly drawn) [No. 18, 7-O-(2,3-O,O-isopropylidene-6-α-L-rhamnosyl-β-D-glucosyl)hesperitin]", "values": [{"measurement": "solubility", "setting": "Solubilities in water; read-out: Solubilities in water", "value": 900, "unit": "µg/mL"}, {"measurement": "inhibition in vivo at 100 mg/kg", "setting": "carragenin edema; 1/2 h", "value": 0, "unit": "%"}, {"measurement": "inhibition in vivo at 200 mg/kg", "setting": "carragenin edema; 1/2 h", "value": 0, "unit": "%"}, {"measurement": "inhibition in vivo at 300 mg/kg", "setting": "carragenin edema; 1/2 h", "value": 0, "unit": "%"}, {"measurement": "inhibition in vivo at 100 mg/kg", "setting": "carragenin edema; 1 h, 1 h 1/2", "value": 17, "unit": "%"}, {"measurement": "inhibition in vivo at 100 mg/kg", "setting": "carragenin edema; 1 h, 1 h", "value": 0, "unit": "%"}, {"measurement": "inhibition in vivo at 200 mg/kg", "setting": "carragenin edema; 1 h, 1 h 1/2", "value": 39, "unit": "%"}, {"measurement": "inhibition in vivo at 200 mg/kg", "setting": "carragenin edema; 1 h, 1 h", "value": 18, "unit": "%"}, {"measurement": "inhibition in vivo at 300 mg/kg", "setting": "carragenin edema; 1 h, 1 h 1/2", "value": 27, "unit": "%"}, {"measurement": "inhibition in vivo at 300 mg/kg", "setting": "carragenin edema; 1 h, 1 h", "value": 0, "unit": "%"}, {"measurement": "inhibition in vivo at 100 mg/kg", "setting": "carragenin edema; 2 h, 2 h", "value": 16, "unit": "%"}, {"measurement": "inhibition in vivo at 200 mg/kg", "setting": "carragenin edema; 2 h, 2 h", "value": 42, "unit": "%"}, {"measurement": "inhibition in vivo at 300 mg/kg", "setting": "carragenin edema; 2 h, 2 h", "value": 27, "unit": "%"}, {"measurement": "inhibition in vivo at 100 mg/kg", "setting": "carragenin edema; 3 h, 3 h", "value": 13, "unit": "%"}, {"measurement": "inhibition in vivo at 200 mg/kg", "setting": "carragenin edema; 3 h, 3 h", "value": 46, "unit": "%"}, {"measurement": "inhibition in vivo at 300 mg/kg", "setting": "carragenin edema; 3 h, 3 h", "value": 21, "unit": "%"}, {"measurement": "inhibition in vivo at 100 mg/kg", "setting": "carragenin edema; 4 h, 4 h", "value": 20, "unit": "%"}, {"measurement": "inhibition in vivo at 200 mg/kg", "setting": "carragenin edema; 4 h, 4 h", "value": 52, "unit": "%"}, {"measurement": "inhibition in vivo at 300 mg/kg", "setting": "carragenin edema; 4 h, 4 h", "value": 26, "unit": "%"}, {"measurement": "inhibition in vivo at 100 mg/kg", "setting": "carragenin edema; 5 h, 5 h", "value": 21, "unit": "%"}, {"measurement": "inhibition in vivo at 200 mg/kg", "setting": "carragenin edema; 5 h, 5 h", "value": 50, "unit": "%"}, {"measurement": "inhibition in vivo at 300 mg/kg", "setting": "carragenin edema; 5 h, 5 h", "value": 16, "unit": "%"}, {"measurement": "inhibition in vivo at 100 mg/kg", "setting": "carragenin edema; 6 h, 6 h", "value": 27, "unit": "%"}, {"measurement": "inhibition in vivo at 200 mg/kg", "setting": "carragenin edema; 6 h, 6 h", "value": 55, "unit": "%"}, {"measurement": "inhibition in vivo at 300 mg/kg", "setting": "carragenin edema; 6 h, 6 h", "value": 16, "unit": "%"}, {"measurement": "percentage reduction of capillary permeability", "setting": "capillary permeability; 10 mg/kg i.p.", "value": 24, "unit": "%"}, {"measurement": "percentage reduction of capillary permeability", "setting": "capillary permeability; 50 mg/kg i.p.", "value": 21, "unit": "%"}, {"measurement": "percentage reduction of capillary permeability", "setting": "capillary permeability; 75 mg/kg i.p.", "value": 8, "unit": "%"}, {"measurement": "mortality at 336 h", "setting": "[1]; 1000 mg/kg i.p.", "value": 0, "unit": "%"}, {"measurement": "mortality at 336 h", "setting": "[1]; 2000 mg/kg i.p.", "value": 0, "unit": "%"}]}
{"smiles": "C[C@@H]1O[C@@H](OC[C@H]2O[C@@H](Oc3c(-c4ccc(O)c(O)c4)oc4cc(OCCO)cc(O)c4c3=O)[C@H](O)[C@@H](O)[C@@H]2O)[C@H](O)[C@H](O)[C@H]1O", "note": "[7-O-hydroxyethyl rutin]", "values": [{"measurement": "inhibition of aldose reductase in vitro (in words)", "setting": "aldose reductase [2]", "value": "practically inactive"}]}
{"smiles": "C[C@@H]1O[C@@H](OC[C@H]2O[C@@H](Oc3c(-c4ccc(O)c(O)c4)oc4cc(O)cc(O)c4c3=O)[C@H](O)[C@@H](O)[C@@H]2O)[C@H](O)[C@H](O)[C@H]1O", "note": "[Rutin, rutin, reference compound]", "values": [{"measurement": "solubility", "setting": "Solubilities in water", "value": 120, "unit": "µg/mL"}, {"measurement": "inhibition at 1000 µM", "setting": "COMT; 10^-3 mole/l", "value": "63 to 68", "unit": "%"}, {"measurement": "inhibition at 10 µM", "setting": "COMT; 10^-5 mole/l", "value": 13, "unit": "%"}, {"measurement": "inhibition of aldose reductase in vitro (in words)", "setting": "aldose reductase [2]", "value": "inhibits aldose reductase in vitro"}, {"measurement": "percentages of inhibition (aldose reductase)", "setting": "Aldose Reductase [3]", "value": 0, "unit": "%"}]}
{"smiles": "C[C@@H]1O[C@@H](OC[C@H]2O[C@@H](Oc3c(-c4ccc(OCCO)c(OCCO)c4)oc4cc(OCCO)cc(O)c4c3=O)[C@H](O)[C@@H](O)[C@@H]2O)[C@H](O)[C@H](O)[C@H]1O", "note": "[7, 3', 4'-tri-O-hydroxyethyl rutin]", "values": [{"measurement": "inhibition of aldose reductase in vitro (in words)", "setting": "aldose reductase [2]", "value": "practically inactive"}]}
{"smiles": "C[C@@H]1O[C@@H](OC[C@H]2O[C@@H](Oc3c(-c4ccc(OCCO)c(OCCO)c4)oc4cc(OCCO)cc(OCCO)c4c3=O)[C@H](O)[C@@H](O)[C@@H]2O)[C@H](O)[C@H](O)[C@H]1O", "note": "[5,7, 3', 4'-tetra-O-hydroxyethyl rutin]", "values": [{"measurement": "inhibition of aldose reductase in vitro (in words)", "setting": "aldose reductase [2]", "value": "practically inactive"}]}
